According to publication PMC4854315, “Discovery of a novel allosteric inhibitor-binding site in ERK5: comparison with the canonical kinase hinge ATP-binding site” (Acta Crystallographica. Section D, Structural Biology, 2016):

What was measured:
Assay in all cases: Z'-LYTE kinase panel
Assay type in all cases: biochemical
ROS1 = target: T1, ROS1 (Homo sapiens, UniProt P08922)
T1 construct: purchased ThermoFisher (SelectScreen, Z'-LYTE)
Outline: (§1)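 The 225-kinase standard panel was run using the Z′-LYTE protocol, and inhibition was expressed as a percentage relative to uninhibited activity at 10 µM compound.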

MET (cMet) = target: T2, MET (cMet) (Homo sapiens, UniProt P08581)
T2 construct: purchased ThermoFisher (SelectScreen, Z'-LYTE)
Outline: as §1

PRKG2 (PKG2) = target: T3, PRKG2 (PKG2) (Homo sapiens, UniProt Q13237)
T3 construct: purchased ThermoFisher (SelectScreen, Z'-LYTE)
T3 sequence (Q13237 1-762): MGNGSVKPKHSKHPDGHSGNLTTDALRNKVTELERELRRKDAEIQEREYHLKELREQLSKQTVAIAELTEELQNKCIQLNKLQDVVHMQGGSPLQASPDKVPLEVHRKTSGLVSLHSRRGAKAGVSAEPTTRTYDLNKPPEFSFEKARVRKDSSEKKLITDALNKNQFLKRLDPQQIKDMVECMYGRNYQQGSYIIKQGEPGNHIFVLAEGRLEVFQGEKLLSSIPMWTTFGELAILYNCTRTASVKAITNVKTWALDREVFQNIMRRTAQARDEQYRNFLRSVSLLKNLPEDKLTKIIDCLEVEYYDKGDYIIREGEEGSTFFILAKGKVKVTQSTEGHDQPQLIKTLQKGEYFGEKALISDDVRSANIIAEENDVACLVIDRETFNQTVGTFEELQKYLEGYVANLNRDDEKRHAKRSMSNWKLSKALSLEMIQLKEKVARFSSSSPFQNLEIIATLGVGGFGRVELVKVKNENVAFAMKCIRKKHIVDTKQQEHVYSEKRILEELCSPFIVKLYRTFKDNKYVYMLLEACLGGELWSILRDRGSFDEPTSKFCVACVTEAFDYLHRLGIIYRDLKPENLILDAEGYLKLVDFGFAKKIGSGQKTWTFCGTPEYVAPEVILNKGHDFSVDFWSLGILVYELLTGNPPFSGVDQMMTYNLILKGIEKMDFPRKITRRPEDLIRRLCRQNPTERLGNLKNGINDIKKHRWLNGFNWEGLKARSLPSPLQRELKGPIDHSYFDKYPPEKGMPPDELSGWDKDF
Outline: as §1

EPHB2 = target: T4, EPHB2 (Homo sapiens, UniProt P29323)
T4 construct: purchased ThermoFisher (SelectScreen, Z'-LYTE)
T4 sequence (P29323 19-1055): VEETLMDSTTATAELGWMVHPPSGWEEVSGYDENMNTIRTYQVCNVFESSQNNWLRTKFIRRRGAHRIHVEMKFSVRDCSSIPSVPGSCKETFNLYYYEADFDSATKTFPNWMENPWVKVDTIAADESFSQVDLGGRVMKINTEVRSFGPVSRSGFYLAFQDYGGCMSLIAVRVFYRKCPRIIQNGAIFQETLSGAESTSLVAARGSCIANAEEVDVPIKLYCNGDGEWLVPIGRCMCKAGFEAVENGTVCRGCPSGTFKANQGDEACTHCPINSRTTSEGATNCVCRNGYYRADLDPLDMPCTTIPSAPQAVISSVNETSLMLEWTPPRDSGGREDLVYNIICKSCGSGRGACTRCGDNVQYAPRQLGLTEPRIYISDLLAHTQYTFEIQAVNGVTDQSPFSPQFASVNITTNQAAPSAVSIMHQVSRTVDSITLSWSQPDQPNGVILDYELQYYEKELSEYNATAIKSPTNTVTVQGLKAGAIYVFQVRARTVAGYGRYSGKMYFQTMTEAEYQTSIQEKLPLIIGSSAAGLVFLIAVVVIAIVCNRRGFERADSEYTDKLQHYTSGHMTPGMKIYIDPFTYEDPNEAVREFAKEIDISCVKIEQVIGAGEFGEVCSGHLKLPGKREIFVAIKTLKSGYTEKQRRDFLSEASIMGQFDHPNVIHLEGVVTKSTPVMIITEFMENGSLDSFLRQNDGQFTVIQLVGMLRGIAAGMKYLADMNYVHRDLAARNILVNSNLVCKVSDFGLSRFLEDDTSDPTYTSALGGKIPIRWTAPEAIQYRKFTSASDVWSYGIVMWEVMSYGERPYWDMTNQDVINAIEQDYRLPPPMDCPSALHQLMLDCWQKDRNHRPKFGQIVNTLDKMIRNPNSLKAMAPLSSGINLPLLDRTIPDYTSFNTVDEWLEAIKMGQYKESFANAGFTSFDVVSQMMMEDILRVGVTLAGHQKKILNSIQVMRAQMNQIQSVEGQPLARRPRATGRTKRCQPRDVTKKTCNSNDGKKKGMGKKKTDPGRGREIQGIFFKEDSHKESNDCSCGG
Outline: as §1

LCK = target: T5, LCK (Homo sapiens, UniProt P06239)
T5 construct: purchased ThermoFisher (SelectScreen, Z'-LYTE)
Outline: as §1

AKT2 (PKB beta) = target: T6, AKT2 (PKB beta) (Homo sapiens, UniProt P31751)
T6 construct: purchased ThermoFisher (SelectScreen, Z'-LYTE)
Outline: as §1

PHKG1 = target: T7, PHKG1 (Homo sapiens, UniProt Q16816)
T7 construct: purchased ThermoFisher (SelectScreen, Z'-LYTE)
Outline: as §1

CSNK1A1 (CK1 alpha 1) = target: T8, CSNK1A1 (CK1 alpha 1) (Homo sapiens, UniProt P48729)
T8 construct: purchased ThermoFisher (SelectScreen, Z'-LYTE)
Outline: as §1

PTK6 (Brk) = target: T9, PTK6 (Brk) (Homo sapiens, UniProt Q13882)
T9 construct: purchased ThermoFisher (SelectScreen, Z'-LYTE)
Outline: as §1

LYN A = target: T10, LYN A (Homo sapiens, UniProt P07948)
T10 construct: purchased ThermoFisher (SelectScreen, Z'-LYTE)
Outline: as §1

MAPK1 (ERK2) = target: T11, MAPK1 (ERK2) (Homo sapiens, UniProt P28482)
T11 construct: purchased ThermoFisher (SelectScreen, Z'-LYTE)
Outline: as §1

RPS6KA3 (RSK2) = target: T12, RPS6KA3 (RSK2) (Homo sapiens, UniProt P51812)
T12 construct: purchased ThermoFisher (SelectScreen, Z'-LYTE)
Outline: as §1

NTRK1 (TRKA) = target: T13, NTRK1 (TRKA) (Homo sapiens, UniProt P04629)
T13 construct: purchased ThermoFisher (SelectScreen, Z'-LYTE)
Outline: as §1

T9 sequence (Q13882 whole entry): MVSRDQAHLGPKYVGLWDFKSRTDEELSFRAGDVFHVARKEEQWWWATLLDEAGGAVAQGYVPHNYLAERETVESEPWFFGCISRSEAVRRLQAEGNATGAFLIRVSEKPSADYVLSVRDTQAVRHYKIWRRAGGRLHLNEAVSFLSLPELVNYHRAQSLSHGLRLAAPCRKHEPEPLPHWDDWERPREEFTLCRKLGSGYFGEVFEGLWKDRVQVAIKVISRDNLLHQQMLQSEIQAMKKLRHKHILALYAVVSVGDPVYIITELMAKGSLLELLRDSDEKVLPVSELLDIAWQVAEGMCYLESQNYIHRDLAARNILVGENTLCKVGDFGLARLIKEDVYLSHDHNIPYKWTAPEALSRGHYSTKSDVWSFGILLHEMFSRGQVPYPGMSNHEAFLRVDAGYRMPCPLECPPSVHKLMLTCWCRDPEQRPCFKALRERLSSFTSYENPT
T7 sequence (Q16816 whole entry): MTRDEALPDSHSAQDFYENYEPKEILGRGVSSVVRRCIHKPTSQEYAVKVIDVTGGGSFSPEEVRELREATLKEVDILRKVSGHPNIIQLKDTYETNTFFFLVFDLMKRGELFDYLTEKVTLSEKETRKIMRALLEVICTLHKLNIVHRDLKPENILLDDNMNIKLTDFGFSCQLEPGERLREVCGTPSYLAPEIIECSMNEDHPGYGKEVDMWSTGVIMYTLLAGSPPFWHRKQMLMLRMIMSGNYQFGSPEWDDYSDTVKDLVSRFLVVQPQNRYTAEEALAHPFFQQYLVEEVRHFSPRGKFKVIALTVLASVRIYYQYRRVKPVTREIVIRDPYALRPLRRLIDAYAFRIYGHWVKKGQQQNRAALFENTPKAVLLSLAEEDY
T1 sequence (P08922 28-2347): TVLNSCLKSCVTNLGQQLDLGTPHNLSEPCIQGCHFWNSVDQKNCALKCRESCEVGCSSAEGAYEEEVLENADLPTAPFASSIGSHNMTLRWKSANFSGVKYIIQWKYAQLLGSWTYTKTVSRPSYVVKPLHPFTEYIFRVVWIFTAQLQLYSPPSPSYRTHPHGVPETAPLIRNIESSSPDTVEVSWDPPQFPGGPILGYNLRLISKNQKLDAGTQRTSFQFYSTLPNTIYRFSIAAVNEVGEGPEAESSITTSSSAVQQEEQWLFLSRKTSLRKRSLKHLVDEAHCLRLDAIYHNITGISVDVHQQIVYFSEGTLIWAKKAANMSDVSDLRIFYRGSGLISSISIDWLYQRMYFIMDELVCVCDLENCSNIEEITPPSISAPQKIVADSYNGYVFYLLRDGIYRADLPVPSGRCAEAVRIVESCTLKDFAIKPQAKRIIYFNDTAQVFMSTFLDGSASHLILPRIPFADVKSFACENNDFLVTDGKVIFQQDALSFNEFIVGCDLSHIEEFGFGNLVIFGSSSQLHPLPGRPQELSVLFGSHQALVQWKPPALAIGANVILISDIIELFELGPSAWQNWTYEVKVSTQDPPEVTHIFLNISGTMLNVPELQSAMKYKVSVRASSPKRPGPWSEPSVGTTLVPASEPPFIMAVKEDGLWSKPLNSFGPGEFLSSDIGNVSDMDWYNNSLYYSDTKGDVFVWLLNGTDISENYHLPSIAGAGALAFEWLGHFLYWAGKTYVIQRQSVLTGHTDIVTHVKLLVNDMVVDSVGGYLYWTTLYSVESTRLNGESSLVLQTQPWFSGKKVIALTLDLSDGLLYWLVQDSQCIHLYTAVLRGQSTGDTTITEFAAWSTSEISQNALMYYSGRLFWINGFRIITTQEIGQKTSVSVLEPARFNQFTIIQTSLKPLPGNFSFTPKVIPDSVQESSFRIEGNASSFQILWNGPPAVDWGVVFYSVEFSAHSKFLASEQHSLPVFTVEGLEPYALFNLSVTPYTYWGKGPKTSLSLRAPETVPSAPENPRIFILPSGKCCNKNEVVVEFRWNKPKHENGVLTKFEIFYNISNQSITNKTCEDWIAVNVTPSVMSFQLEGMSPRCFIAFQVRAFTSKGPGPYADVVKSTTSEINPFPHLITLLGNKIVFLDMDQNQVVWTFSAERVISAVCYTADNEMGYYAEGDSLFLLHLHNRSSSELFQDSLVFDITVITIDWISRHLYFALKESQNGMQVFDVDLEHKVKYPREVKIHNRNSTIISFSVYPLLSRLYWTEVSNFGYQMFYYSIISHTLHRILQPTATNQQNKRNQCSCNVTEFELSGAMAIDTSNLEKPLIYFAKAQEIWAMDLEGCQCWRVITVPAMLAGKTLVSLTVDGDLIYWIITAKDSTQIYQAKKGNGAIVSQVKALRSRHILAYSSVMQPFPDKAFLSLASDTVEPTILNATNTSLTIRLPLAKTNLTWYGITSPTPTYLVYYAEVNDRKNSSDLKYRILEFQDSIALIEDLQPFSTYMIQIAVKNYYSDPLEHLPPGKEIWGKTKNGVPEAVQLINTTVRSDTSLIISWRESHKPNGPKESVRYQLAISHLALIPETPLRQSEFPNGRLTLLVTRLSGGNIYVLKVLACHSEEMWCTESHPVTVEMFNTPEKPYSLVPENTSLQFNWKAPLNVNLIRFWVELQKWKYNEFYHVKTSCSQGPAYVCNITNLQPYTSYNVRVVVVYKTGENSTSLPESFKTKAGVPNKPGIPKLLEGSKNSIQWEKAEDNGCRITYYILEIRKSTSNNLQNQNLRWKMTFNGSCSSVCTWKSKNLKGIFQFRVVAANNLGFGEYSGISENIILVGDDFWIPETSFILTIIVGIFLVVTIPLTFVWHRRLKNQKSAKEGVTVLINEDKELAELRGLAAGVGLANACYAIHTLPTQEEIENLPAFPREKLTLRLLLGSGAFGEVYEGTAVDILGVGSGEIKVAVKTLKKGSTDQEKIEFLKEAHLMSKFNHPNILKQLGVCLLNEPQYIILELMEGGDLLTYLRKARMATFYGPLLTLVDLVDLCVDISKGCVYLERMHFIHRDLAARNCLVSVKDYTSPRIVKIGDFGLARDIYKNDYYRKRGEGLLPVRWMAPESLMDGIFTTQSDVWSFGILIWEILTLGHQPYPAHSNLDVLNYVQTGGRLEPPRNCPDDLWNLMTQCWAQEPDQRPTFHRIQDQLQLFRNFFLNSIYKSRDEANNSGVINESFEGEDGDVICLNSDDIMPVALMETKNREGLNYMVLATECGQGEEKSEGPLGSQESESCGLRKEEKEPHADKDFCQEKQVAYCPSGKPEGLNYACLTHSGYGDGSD
T6 sequence (P31751 whole entry): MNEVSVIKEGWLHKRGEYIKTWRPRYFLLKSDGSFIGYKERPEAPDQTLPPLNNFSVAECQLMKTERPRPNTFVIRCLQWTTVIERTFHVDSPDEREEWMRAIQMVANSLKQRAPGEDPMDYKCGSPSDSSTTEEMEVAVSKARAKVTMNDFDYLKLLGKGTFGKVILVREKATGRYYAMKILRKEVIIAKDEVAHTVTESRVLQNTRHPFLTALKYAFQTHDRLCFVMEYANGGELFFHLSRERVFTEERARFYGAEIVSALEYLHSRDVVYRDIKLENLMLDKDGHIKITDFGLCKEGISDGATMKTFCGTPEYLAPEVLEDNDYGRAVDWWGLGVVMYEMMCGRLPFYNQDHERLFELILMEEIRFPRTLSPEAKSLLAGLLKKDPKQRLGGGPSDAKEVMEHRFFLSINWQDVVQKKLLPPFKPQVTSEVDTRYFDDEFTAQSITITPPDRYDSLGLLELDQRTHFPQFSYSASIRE
T10 sequence (P07948 whole entry): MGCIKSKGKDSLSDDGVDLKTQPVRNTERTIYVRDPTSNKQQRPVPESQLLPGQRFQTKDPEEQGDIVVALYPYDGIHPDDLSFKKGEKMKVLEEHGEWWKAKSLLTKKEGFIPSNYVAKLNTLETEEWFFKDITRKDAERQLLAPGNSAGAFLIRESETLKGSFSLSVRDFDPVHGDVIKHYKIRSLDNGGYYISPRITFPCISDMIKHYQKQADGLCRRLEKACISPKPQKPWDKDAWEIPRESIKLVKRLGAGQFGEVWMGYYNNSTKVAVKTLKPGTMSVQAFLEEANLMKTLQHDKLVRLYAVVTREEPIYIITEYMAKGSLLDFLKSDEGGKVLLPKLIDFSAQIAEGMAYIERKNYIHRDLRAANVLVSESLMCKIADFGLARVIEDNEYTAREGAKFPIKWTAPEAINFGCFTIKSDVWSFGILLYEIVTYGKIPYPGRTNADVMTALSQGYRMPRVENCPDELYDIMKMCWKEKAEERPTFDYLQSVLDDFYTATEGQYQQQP
T5 sequence (P06239 whole entry): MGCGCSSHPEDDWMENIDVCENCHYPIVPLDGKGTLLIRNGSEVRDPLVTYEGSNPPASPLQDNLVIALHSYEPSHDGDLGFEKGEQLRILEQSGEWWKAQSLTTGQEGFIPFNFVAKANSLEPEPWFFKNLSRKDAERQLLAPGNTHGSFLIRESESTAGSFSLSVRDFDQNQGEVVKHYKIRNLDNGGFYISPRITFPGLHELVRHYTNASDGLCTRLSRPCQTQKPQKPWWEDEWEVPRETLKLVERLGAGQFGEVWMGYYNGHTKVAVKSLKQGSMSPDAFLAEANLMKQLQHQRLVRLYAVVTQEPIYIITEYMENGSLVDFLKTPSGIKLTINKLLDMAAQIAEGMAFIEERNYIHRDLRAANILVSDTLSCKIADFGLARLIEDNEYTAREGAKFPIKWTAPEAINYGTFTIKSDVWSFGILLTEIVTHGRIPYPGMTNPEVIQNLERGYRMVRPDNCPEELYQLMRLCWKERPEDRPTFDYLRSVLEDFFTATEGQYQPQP
T8 sequence (P48729 whole entry): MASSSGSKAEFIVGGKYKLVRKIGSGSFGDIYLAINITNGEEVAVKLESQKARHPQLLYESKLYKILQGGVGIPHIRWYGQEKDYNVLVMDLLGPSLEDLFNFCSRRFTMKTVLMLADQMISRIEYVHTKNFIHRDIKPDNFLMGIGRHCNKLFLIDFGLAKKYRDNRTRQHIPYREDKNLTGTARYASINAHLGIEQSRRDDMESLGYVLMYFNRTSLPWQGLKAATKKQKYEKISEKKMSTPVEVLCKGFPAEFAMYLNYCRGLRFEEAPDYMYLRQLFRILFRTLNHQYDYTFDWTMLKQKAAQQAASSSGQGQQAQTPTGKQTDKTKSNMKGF

Compound	inhibition at 10 µM (ROS1)	inhibition at 10 µM (MET (cMet))	inhibition at 10 µM (PRKG2 (PKG2))	inhibition at 10 µM (EPHB2)	inhibition at 10 µM (LCK)	inhibition at 10 µM (AKT2 (PKB beta))	inhibition at 10 µM (PHKG1)	inhibition at 10 µM (CSNK1A1 (CK1 alpha 1))	inhibition at 10 µM (PTK6 (Brk))	inhibition at 10 µM (LYN A)	inhibition at 10 µM (MAPK1 (ERK2))	inhibition at 10 µM (RPS6KA3 (RSK2))	inhibition at 10 µM (NTRK1 (TRKA))	also measured
Cc1cc(Nc2nc(N)nn2C(=O)NC(C)C)ccc1Cl [Compound 5]	57%	25%	-9%	7%	29%	-0.29%	-5.38%	4%	5.47%	25%	6%	37%	36%	–
Cc1ncc(-c2nc(Nc3ccc(C(=O)NCCN4CCCCC4)cc3)ncc2F)n1C(C)C [Compound 3]	99%	85%	95%	97%	94%	7%	100%	28%	61%	88%	39%	81%	76%	–
XMD8-92 [Compound 2, reference compound]	–	–	–	–	–	–	–	–	–	–	–	–	–	ROS1 % Inhibition (ROS1; 10 µM compound, ATP Km app): 69%; MET (cMet) % Inhibition (MET (cMet); 10 µM compound, ATP Km app): 57%; PRKG2 (PKG2) % Inhibition (PRKG2 (PKG2); 10 µM compound, ATP Km app): 43%; EPHB2 % Inhibition (EPHB2; 10 µM compound, ATP Km app): 18%; LCK % Inhibition (LCK; 10 µM compound, ATP Km app): 15%; AKT2 (PKB beta) % Inhibition (AKT2 (PKB beta); 10 µM compound, ATP Km app): 98%; PHKG1 % Inhibition (PHKG1; 10 µM compound, ATP Km app): 12%; CSNK1A1 (CK1 alpha 1) % Inhibition (CSNK1A1 (CK1 alpha 1); 10 µM compound, ATP Km app): 7%; PTK6 (Brk) % Inhibition (PTK6 (Brk); 10 µM compound, ATP Km app): 14%; LYN A % Inhibition (LYN A; 10 µM compound, ATP Km app): 66%; MAPK1 (ERK2) % Inhibition (MAPK1 (ERK2); 10 µM compound, ATP Km app): 9%; RPS6KA3 (RSK2) % Inhibition (RPS6KA3 (RSK2); 10 µM compound, ATP Km app): 98%; NTRK1 (TRKA) % Inhibition (NTRK1 (TRKA); 10 µM compound, ATP Km app): 43%
